Test results reported in patent US9895407B2, “Disinfecting formulations and uses thereof” (Sunny Wipes Pty Ltd, priority 2011, dated 2018).
Several values for one entry are separate records, joined by “and”; a condition that tells them apart may be missing. Identical values can stand only once.

Legend:
hand microflora = test: Surgical handrub test, EN 12791:2005; format: in vivo, human; conditions: 5 volunteers, 60 seconds exposure, right hand under sterile glove for 3 hours
Procedure: The protocol is based upon European standard EN 12791:2005 designed for testing “Chemical disinfectants and antiseptics—Surgical hand disinfectant”.
The clean and healthy hands (free of cuts and abrasions and with short, clean fingernails) of 5 volunteers were initially washed for 1 min with soap and water and dried with paper towel. To establish base line flora levels the fingertips and thumb were rubbed for 1 minute on the base of a petri dish containing 10 ml of Tryptone Soy Broth (TSB). A separate petri dish was used for each hand. Dilutions of 10^−2 and 10^−3 were prepared from the TSB that were assayed by the pour-plate method using Tryptone Soy Agar (TSA) plates.
Immediately after sampling for the baseline and without recontamination of the hands the subjects performed the handrub test. The subjects were split into two groups which were alternately treated with the standard formulation or the test formulation initially and then the other formulation, separately by a week to allow re-colonisation of native flora. […]
Log10, values for immediate effect and sustained effect were then determined and a Log Reduction Factor for both test formulation and standard formulation were calculated based on the average difference between the log10 pre-value and the log10 post-value in each subject.

[1] = system: Escherichia coli (NCTC 10538); test: Hygienic handwash/handrub test, EN 1500:1997, artificially contaminated hands; format: in vivo; conditions: 60 second rub
From the text: The protocol is based upon European standard EN 1500:1997 designed for testing “Chemical disinfectants and antiseptics—Hygienic handwash”. The subjects (15 volunteers with clean and healthy hands that were free of cuts and abrasions and having short, clean fingernails) were split into two approximately equal groups which were alternately treated with the standard formulation or the test formulation initially and then the other formulation, separately by a one day. The hands of the subjects were initially washed for 1 min with soap and water and dried with paper towel. […] Excess fluid was allowed to drain back into the container. Hands were air dried for 3 minutes, holding them in a horizontal position. Each subject was encouraged to rotate their hands to avoid the formation of droplets. Each subject was treated from the same batch of contamination fluid. After drying, fingertips and thumb were rubbed for 1 minute on the base of a Petri-dish, which contained 10 mL of TSB. A separate Petri-dish for each hand (Left and Right) was used. This was the Pre-value. Dilutions of 10^−4 and 10^−5 were prepared using sterile Peptone Water (PEP). Each dilution was spread onto pre-poured, dried TSA plates. […] This procedure was completed with a 5 second rinse of fingers under running tap water. For the test formulation, 3 mL of test product was dispensed onto the subject's hands and rubbed over for 30 seconds using the standard procedure as instructed. This was done twice to give total of 6 mL test product over 60 second rub. The test product procedure was completed with a 5 seconds rinse of fingers under running tap water. […] Dilutions of 10^0, 10^−1 and 10^−2 were spread on pre-poured and dried TSA plates. All plates were incubated at 36° C.±2° C. for 24-48 hours. After the incubation period, all the plates were checked and colony forming units on both standard and test sample were counted. Dilutions with counts that are within 15-300 cfu were used in the computation. Plates showing less than 15 cfu or no growth were also counted. […] The test culture used in this study was obtained from the University of New South Wales Culture Collection—Escherichia coli (NCTC 10538) A neutralizer validated according to prEN 12054 were incorporated in the sampling fluids and diluents for the assessment of post-values in both test and reference procedure. […] The test organism was freshly revived from frozen protect beads by sub culturing in two McCartney bottles containing 5 mL of TSB. They were incubated at 37° C. These cultures are then inoculated into two bottles containing 1 L TSB. They were incubated at 37° C. for 18-24 hours The cultures were pooled into a sterile bottle to prepare the bacterial suspension. […] For testing this product, a cross-over design was used. […]

[2] = system: Escherichia coli (NCTC 10538); test: as above; format: in vivo; conditions: N = 14 subjects
[3] = per subject and hand, duplicate plates, 2 x 3 mL

Row | Compound | reduction of hand microflora, after 3 hours (hand microflora) | Postvalues ([1]; per subject and hand (L/R), after 2 x 3 mL) | Number of cfu per plate, Postvalues, dilution 10^-0 [1, 3] | Number of cfu per plate, Postvalues, dilution 10^-1 [1, 3] | Number of cfu per plate, Postvalues, dilution 10^-2 [1, 3] | Log Y, average of subjects [2]
1 | CCCO [60% propan-1-ol, propan-1-ol] | 1.89 Logs |  |  |  |  | 
2 | CC(C)O [60% propan-2-ol, propan-2-ol] |  | 625 and 5 (3×) and 0 (2×) and 235 (2×) and 455 and 52 and 127 and 240 and 1415 and 2050 and 5950 and 4 and 165 and 125 and 690 and 250 and 210 and 21 and 61 and 30 and 74 and 7 and 22 and 1530 | TNTC/TNTC (14×) and 42/41 and 0/0 (3×) and 5/4 and 58/46 and 134/120 and 4/3 and 5/5 and 246/275 and 232/182 and 19/22 and 54/69 and 86/62 and 3/10 and 21/22 | 108/94 and 9/3 and 177/129 and 62/63 and 1/0 and 5/3 and 0/0 (6×) and 20/27 and 50/41 and 2/0 and 26/22 and 141/142 and TNTC/TNTC (2×) and 0/5 and 18/15 and 9/16 and 17/30 and 62/76 and 26/24 and 19/23 and 8/8 and 1/5 and 1/11 and 1/2 | 5/16 and 0/3 and 11/19 and 2/4 and 0/0 (12×) and 0/1 (2×) and 2/1 and 3/9 and 7/3 and 11 cfu and 16/ cfu and 56/ cfu and 0/2 and 1/0 and 10/9 and 17 cfu and 1/2 and 3/5 | 1.97
